Each structure is given as a SMILES string.

Regarding `O=C(O)c1ccc(F)cc1[N+](=O)[O-]`, the melting point was found to be 149 °C.

In turn, `c1cc(-c2nnn[nH]2)ccn1` showed a melting point of 265 to 267 °C.

For the molecule `Clc1cccc2ccccc12`, the melting point is -2.5 °C.

As to `CC(=O)CCc1cc2c(cc1[N+](=O)[O-])CCC(C)N2C(=O)c1ccc([N+](=O)[O-])cc1` (stereo not given), the melting point turned out to be 173 °C.

The molecule `Cc1cc(C(=O)O)ccc1Cl` had a melting point of 216 to 218 °C.

`C=C(C)CC(C)=O` came in with a melting point of -72.6 °C.

`O=C(O)c1ccc(CN2CCCC2)cc1` had a melting point of 184 to 185 °C.

Molecule `CC12CCC(=O)C(Cl)=C1CCC1C2CCC2(C)C(O)CCC12` (stereo not given) had a melting point of 189 °C.

In turn, `CC1=CC(C)(C)Nc2ccccc21` registered a melting point of 26.5 °C.

For `CCOC(=O)CC[C@H](NC(=O)c1ccc([N+](=O)[O-])cc1)C(=O)OCC`, the melting point lay in the range of 92 to 95 °C.

As for `Cc1ccc(-c2csc(/C(C#N)=N\Nc3ccc(Cl)cc3Cl)n2)cc1`, the melting point was 211 °C.

For `c1ccc(OCc2ccc(CCN3CCOCC3)cc2)cc1`, the melting point was 86 °C.

Molecule `CCOC(=O)Cc1ccncc1` yielded a melting point of 19 °C.

For `CCOc1nc2ccccc2c(=O)n1Cc1ccccc1`, the melting point fell in the range of 96 to 97 °C.

Consider `CN[C@H](CC(=O)O)C(=O)O`, for which the melting point was 187 to 192 °C.

Molecule `O=[N+]([O-])c1cccc(-c2nnc3n2NC(c2ccc(Cl)cc2)S3)c1` (stereo not given) displayed a melting point of 199 °C.

For the molecule `CC1(C)CC2C(C(=O)O1)C2(C)C` (stereo not given), the melting point was 80 to 83 °C.

With `O=[N+]([O-])c1cc([N+](=O)[O-])c(C(Br)C(Br)c2ccccc2)cc1/C=C\c1ccccc1` (stereo not given), the melting point was 212 °C.

With `CC(C=CC=CC(C)=CC=CC(C)=CC=C1C(C)=CC(=O)CC1(C)C)=CC=CC(C)=CC=C1C(C)=CC(=O)CC1(C)C`, the melting point came out at 219 °C.

Regarding `CCCCCN`, the melting point was -50 °C.

In turn, `Nc1cnn(-c2ccccc2)c(=O)c1Cl` yielded a melting point of 206 °C.

Take `Fc1nc(Cl)c2[nH]cnc2n1`: the melting point lay within 162 to 163 °C.

In turn, `CN(C)c1ccc(/C=C(\C#N)c2nc(-c3cccc4ccccc34)cs2)cc1` came in with a melting point of 128 °C.

As for `COc1ccc(-c2onc(C(=O)c3cccs3)c2S(=O)(=O)c2ccccc2)cc1`, the melting point was 120 °C.

Turning to `O=CC(C=O)c1ccccc1[N+](=O)[O-]`, the melting point was in the range of 118 to 123 °C.

`O=C(O)c1c(O)cccc1F` returned a melting point of 160 °C.

The molecule `O=S1(=O)CC(O)C(Br)C1` (stereo not given) came in with a melting point of 190 to 192 °C.

Molecule `CC(=O)OC1CC[C@@]2(C)C(CC[C@@H]3[C@@H]2CC[C@@]2(C)[C@H]3CC[C@]2(O)CCc2ccccc2)C1` (stereo not given in full) showed a melting point of 137 to 139 °C.

The molecule `CN(C)Cc1c(O)c(Br)c(C(=O)O)c(Br)c1O` displayed a melting point of 208 °C.

`O=Cc1ccc(-c2ccc([N+](=O)[O-])cc2)o1` showed a melting point of 204 to 208 °C.

Molecule `CCc1nc(NC(=O)NS(=O)(=O)c2cccs2)nc(Cl)c1C` yielded a melting point of 187 to 188 °C.

Molecule `O=C(Cn1cncn1)c1ccc(F)cc1F` gave a melting point of 105 °C.

In turn, `CC1=CC(c2ccccc2)c2ccccc21` (stereo not given) came in with a melting point of 61 °C.

`COc1ccc(C2Cc3ccccc3C(=O)O2)cc1` (stereo not given) had a melting point of 108 °C.

Molecule `O=C(Cl)c1nc2ccccc2s1` returned a melting point of 150 °C.

For `COc1ccccc1C(=S)N1CCOCC1`, the melting point amounted to 86 °C.

As to `COc1ccc2[nH]c3c(c2c1)CCNC3C` (stereo not given), the melting point stood at 150 °C.

For `O=C(O)c1ccc(C(=O)O)c([N+](=O)[O-])c1`, the melting point lay within 270 to 272 °C.

`CC(C)(C(=O)N1C(=O)C=CC1(C)C)C(=O)N1C(=O)C=CC1(C)C` registered a melting point of 128 °C.

Turning to `O=[N+]([O-])c1cc(Cl)c(Cl)cc1Cl`, the melting point amounted to 57.5 °C.

`CC(=O)CC(=O)c1cccnc1` gave a melting point of 85 °C.

Molecule `N#Cc1c(C(F)(F)F)cc(-c2ccccc2)[nH]c1=O` came in with a melting point of 301 to 303 °C.

In turn, `FC(F)(Cl)CCl` returned a melting point of -101 °C.

`O=C1C(=Cc2ccc(N(CCCl)CCCl)cc2)SC(=S)N1CN1CCOCC1` had a melting point of 164 °C.

The molecule `COc1ccc(Cl)cc1C(=O)O` had a melting point of 99 °C.

Consider `O=C1CCc2ccccc2CC1`, for which the melting point came out at 30 °C.

The molecule `CCOC1=NN(c2ccc([N+](=O)[O-])cc2)C(=O)C1` came in with a melting point of 142 °C.

Molecule `CCOC(=O)C(Cl)(Cc1cc(CC(Cl)(C(=O)OCC)C(=O)OCC)c([N+](=O)[O-])cc1[N+](=O)[O-])C(=O)OCC` gave a melting point of 146 °C.

In turn, `O=C(C=Cc1ccc(Cl)cc1)c1ccc(Cl)cc1` showed a melting point of 158 °C.

With `FC(F)(F)c1nnc(S)n1/N=C/c1ccccc1`, the melting point turned out to be 233 °C.

In the case of `NC(=S)Nc1ccc(F)c(F)c1F`, the melting point lay in the range of 162 to 165 °C.

For `COC(=O)C(C)Oc1ccc(Oc2ncc(C(F)(F)F)cc2Cl)cc1` (stereo not given), the melting point is 56 °C.

As for `C/C(=N\c1ccccc1C)c1c(O)c2ccccc2n(-c2ccccc2)c1=O`, the melting point was 140 °C.

As for `CCOc1ccc(-c2nnc3n2NC(c2ccccc2OC)S3)cc1` (stereo not given), the melting point was found to be 194 °C.

The molecule `NNC(=O)CSC1CS(=O)(=O)c2cc([N+](=O)[O-])ccc21` (stereo not given) had a melting point of 181 to 182 °C.

`Nc1cc(Cl)cnc1Br` registered a melting point of 141 to 143 °C.

In the case of `COc1ccc([N+](=O)[O-])c2ccccc12`, the melting point was 81 to 85 °C.

`CCOC(=O)c1cc(-c2ccco2)on1` gave a melting point of 49 to 50 °C.

The molecule `CCN1C(=O)OC(C)(C)C1=O` displayed a melting point of 76.5 °C.

In turn, `CCN(CC)CN1C(=O)/C(=C\c2ccc(Cl)cc2)SC1=S` showed a melting point of 89 °C.

The molecule `O=C(O)CCN1C(=O)C=CC1=O` showed a melting point of 104 °C.

The molecule `Cc1c(O)ncnc1Cl` displayed a melting point of 202 °C.

In the case of `CC(=O)CCc1cc2c(cc1[N+](=O)[O-])CCC(C)N2C(=O)c1ccccc1` (stereo not given), the melting point is 138 °C.

`CCOC(=O)CON=C(c1cc2ccccc2o1)C1CC(C)(c2ccccc2)C1` (stereo not given): the melting point was 155 to 156 °C.

`O=C1Cc2cc([N+](=O)[O-])ccc21` showed a melting point of 76 °C.

In turn, `Cc1cc(C)c(Br)c(C)c1Br` had a melting point of 65.5 °C.

For `COC1OC(CNC(=O)N(CCCl)N=O)C(O)C(O)C1O` (stereo not given), the melting point is 111 °C.

`O=C(NC(Cc1ccccc1)c1ccccc1)c1cccnc1` (stereo not given): the melting point is 159 °C.

`COc1ccc(C2CC(=O)c3c(O)cc(OC4OC(COC5OC(C)C(O)C(O)C5O)C(O)C(O)C4O)cc3O2)cc1O` (stereo not given) had a melting point of 262 °C.

Consider `OCc1cc(C(F)(F)F)ccc1Br`, for which the melting point amounted to 72 °C.

Molecule `Nc1cc2nc3c(cc2cc1C=O)CCCC3` gave a melting point of 218 °C.

`CCC(C(=O)O)c1ccccc1C(=O)O` (stereo not given): the melting point stood at 170 °C.

The molecule `CC(C)CC(=O)NC(C(=O)NC(C(=O)NC(CC(C)C)C(O)CC(=O)NC(C)C(=O)NC(CC(C)C)C(O)CC(=O)O)C(C)C)C(C)C` (stereo not given) yielded a melting point of 233 °C.

In turn, `C=C(C)C(=O)Oc1ccc(C(C)(C)c2ccc(OC(=O)C(=C)C)cc2)cc1` gave a melting point of 70 to 76 °C.

As to `CCCCCCCCCCCC1=C(O)C(=O)C=C(O)C1=O`, the melting point amounted to 142 °C.

For `Nc1cc(Cl)c2nonc2c1[N+](=O)[O-]`, the melting point was in the range of 276 to 277 °C.

The molecule `CNC1=CC(=O)c2ccccc2C1=O` displayed a melting point of 230 °C.

Molecule `CCCCCCCCN(C)C` registered a melting point of -57 °C.

`Nn1c(S)nnc1-c1ccc(Cl)cc1` displayed a melting point of 320 °C.

The molecule `COc1nc(C)nc(NC(=O)NS(=O)(=O)c2ccccc2OCCCl)n1` had a melting point of 189 °C.

In the case of `O=C(O)c1ccc([N+](=O)[O-])c(F)c1`, the melting point is 175 °C.

As to `O=C(NC(Cc1ccsc1)C(=O)O)OCC1c2ccccc2-c2ccccc21` (stereo not given), the melting point is 188 °C.

`CSc1nnc(C(C)(C)C)c(=O)n1N` had a melting point of 126 °C.

`CCCCN1CCCCC1C(=O)Nc1c(C)cccc1C` (stereo not given) returned a melting point of 107 °C.

In the case of `O=[N+]([O-])c1cccc(-c2nnc3n2CN(c2cccc([N+](=O)[O-])c2)CS3)c1`, the melting point came out at 240 °C.

Regarding `Cc1ccc(OP(=O)(Oc2ccc(C)c(C)c2)Oc2ccc(C)c(C)c2)cc1C`, the melting point worked out at 72 °C.

Molecule `ON=CC1=C(/C=C/c2ccccc2)CCC1` returned a melting point of 162 to 163 °C.

Consider `O=C(O)c1ccncc1C(=O)O`, for which the melting point worked out at 262 °C.

Take `COC(=O)c1c(-c2c(Cl)cccc2Cl)noc1C`: the melting point is 115 °C.

`CC(=O)OCCOCCOCCOC(C)=O` yielded a melting point of -50 °C.

The molecule `N#Cc1ccc(C[C@H](NC(=O)OCC2c3ccccc3-c3ccccc32)C(=O)O)cc1` came in with a melting point of 189 °C.

Take `O=C(C1=NOC2C(=O)N(c3ccccc3Cl)C(=O)C12)c1cccs1` (stereo not given): the melting point is 180 °C.

Consider `NC(=O)CC1(CC(=O)O)CCCCC1`, for which the melting point lay in the range of 140 to 145 °C.

Molecule `Nc1cnccc1I` had a melting point of 61 °C.

In turn, `Cc1cncc(C(=O)O)c1` returned a melting point of 212 °C.

Take `COc1ccc2oc(CCC(C)=O)c(-c3ccc(C)o3)c2c1`: the melting point was found to be 36 °C.

The molecule `NC(=O)c1c(F)cccc1Cl` showed a melting point of 141 °C.

`Cc1nc(C)c(C(=O)O)s1` showed a melting point of 233 to 235 °C.

`O=C1CCC(c2ccc(N=Cc3ccccc3[N+](=O)[O-])cc2)=NN1` had a melting point of 234 to 236 °C.

For the molecule `Cc1cc2ccccc2c2ccc3ccccc3c12`, the melting point is 118 °C.

For the molecule `O=C(CCBr)N1CCN(C(=O)CCBr)CC1`, the melting point is 106 °C.

In the case of `COc1cc(CC#N)cc(OC)c1OC`, the melting point worked out at 77 °C.

With `Cc1ccc2occ(C=O)c(=O)c2c1`, the melting point lay in the range of 169 to 174 °C.

`COc1ccc(-c2oc3c(C)c(OC)cc(OC)c3c(=O)c2C)cc1OC` displayed a melting point of 217 °C.

As to `O=C(O)c1csc(-c2cccnc2)n1`, the melting point is 283 to 284 °C.

What is called melting point is the temperature of the solid-liquid transition.
